# Entries after “also recorded” stand apart in the source; their conditions may differ. Counter-ions that a name gives are not always drawn.
# Legend:
# [1] = system: α receptor in rabbit vascular smooth muscle; experiment: Antagonism of norepinephrine cumulative contraction of rabbit aorta; format: cell-based
# Procedure: (§1) After anesthetizing the rabbit, its chest was quickly cut open. The descending aorta, connective tissues, and surrounding adipose tissues were removed (if the serotonin receptor antagonistic test was carried out, a smooth stainless steel rod was used to remove the endothelial cells), and the aorta was cut into 3-5 mm vascular rings. Then, the steel wire hook was passed through the vascular ring, with one end fixed on the ventilation hook and the other end connected to the tension transducer and placed in a bath tube containing 20 ml of nutrient solution. The change in tension was recorded. The temperature was maintained in the bath tube at 37±0.5° C., and a mixed gas (95% O2+5% CO2) was introduced at the rate of 1-2 bubbles per second. The initial load of the specimen was 1.5 g. The nutrient solution was changed every 20 min, balanced for 2 h, and the test was started after the baseline became stable.
# After the specimen tension became stable, a waveform was recorded and norepinephrine added cumulatively in the bath tube (10^−8˜6×10^−5 mol/L) until reaching the maximum response, and then, the waveform was recorded again. […]
# After the specimen tension became stable, a waveform was recorded and norepinephrine added cumulatively in the bath tube (10^−8˜3×10^−3 mol/L) until reaching the maximum response, and then, the waveform was recorded. […]
# [2] = Equilibrium solubility in water; format: physicochemical; details: for Crystal form transformation: XRPD of solid after 24 hours equilibrium in water; for pH: supernatant after 24 hours equilibrium in water
# Procedure: As a comparison, the equilibrium solubility was also tested under the same conditions for crystal form C sample (prepared in Example 11), crystal form D sample (prepared in Example 12), and crystal form F sample (prepared in Example 13). The suspension of each crystal form (˜10 mg/mL) was prepared in the test, magnetically stirred at room temperature for 24 hours (rotating speed˜800 rpm) and then centrifuged (10000 rpm, 5 min). The solubility and pH were determined for the supernatant after filtration ([…] PTFE filter membrane) and XRPD (transmission) for the solid.
# [3] = system: 5-hydroxytryptamine (5-HT) receptor in rabbit vascular smooth muscle; experiment: Antagonism of 5-HT cumulative contraction of rabbit aorta; format: cell-based
# Procedure: as §1
# After the specimen tension became stable, the waveform was recorded and 5-HT added cumulatively in the bath tube (10^−7˜3×10^−4 mol/L) until reaching the maximum response, and the waveform was recorded again. […]
# After the specimen tension became stable, a waveform was recorded and 5-HT cumulatively added in the bath tube (10^−7˜3×10^−4 mol/L) until reaching the maximum response, and the waveform was recorded again. […]
# [4] = Hygroscopicity by dynamic vapor sorption (DVS); format: physicochemical
# Procedure: Dynamic vapor sorption (DVS) curves were created using DVS Intrinsic of SMS (Surface Measurement Systems). The relative humidity at 25° C. was corrected by the deliquescence points of LiCl, Mg (NO3)2, and KCl.
# [5] = Solid-state stability (HPLC purity, XRPD crystal form); format: physicochemical
# Procedure: For the solid samples separated under different conditions, the chemical stability was evaluated by determining purity using the HPLC method, and the physical stability was evaluated by determining the crystal form using the XRPD test.
# [6] = system: isolated rabbit vascular smooth muscle contraction induced by spasmodic agent AD; experiment: Relaxation of isolated rabbit vascular smooth muscle contraction induced by spasmodic agent AD; format: cell-based; details: Oryctolagus cuniculus; adrenaline hydrochloride 10^−5 mol/L; X7 1×10^−9˜1×10^−6 mol/L; read-out: −logEC50 to relax the rabbit aorta contraction by AD (converted)
# Procedure: as §1, with “The initial load of the specimen was 1.5 g. The nutrient solution was changed every 20 min, balanced for 2 h, and the test was started after the baseline became stable.” left out
# After the specimen tension became stable, a waveform was recorded, the spasmodic agent adrenaline hydrochloride (AD) (10^−5 mol/L) was added in the bath tube to induce contraction. […] When the maximum response of the next contraction was basically the same as that of the previous one, the prepared X7 solution (1×10^−9˜1×10^−6 mol/L) was added, and the waveform recorded. With the maximum relaxation response of X7 as 100%, the relaxation percentage of X7 at each concentration was calculated and the dose-effect curve plotted using the relaxation percentage of X7 as the vertical coordinate and the logarithm of each concentration as the horizontal coordinate. […]
# [7] = equilibrium solubility in water, room temperature, 24 hours, hydrochloride
# [8] = room temperature, hydrochloride
# [9] = 3 conditions: sealed 80° C. 1 day, open 25° C./60% RH and 40° C./75% RH 1 week, hydrochloride
smiles,measurement,setting,value
"COc1cc2nc(N3CCN(C(=O)C4COc5ccccc5O4)CC3)nc(N)c2cc1OC (stereo not shown) [doxazosin, reference compound]",PA2 to resist rabbit aorta contraction by NA,[1]; doxazosin 10^−7 mol/L,7.83±0.05
"c1ccc2c(c1)nnn2CCCCN1CCN(c2nsc3ccccc23)CC1 [Crystal form C, 3-(4-(4-(1H-benzotriazol-1-yl)butyl)piperazin-1-yl) benzoisothiazole hydrochloride]",Crystal form transformation,[2]; hydrochloride,transformed into crystal form B
same,Solubility,[2]; [7],3300 µg/mL
same,pH,[2]; [8],4.9
"COc1cccc(CCc2ccccc2OCC(CN(C)C)OC(=O)CCC(=O)O)c1 (stereo not shown) [sarpogrelate, reference compound]",PA2 to resist rabbit aorta contraction by 5-HT,[3]; sarpogrelate 10^−6 mol/L,7.21±0.08
"c1ccc2c(c1)nnn2CCCCN1CCN(c2nsc3ccccc23)CC1 [Crystal form B, 3-(4-(4-(1H-benzotriazol-1-yl)butyl)piperazin-1-yl) benzoisothiazole hydrochloride]",Crystal form transformation,[2]; hydrochloride,No
same,Crystal form transformation,"[2]; listed as crystal form B, hydrochloride",remained unchanged
same,Solubility,[2]; [7],3400 µg/mL
same,pH,[2]; [8],4.9
same,water absorption (DVS),"[4]; adsorption process, 95% RH, 25° C.",12.5%
same,water absorbed (DVS),"[4]; desorption process, 30% RH, 25° C.",0.4%
same,water absorbed (DVS),"[4]; desorption process, 50% RH, 25° C.",12.3%
same,"chemical purity change (chemical stability, HPLC)",[5]; [9],does not decrease
same,HPLC purity change,"[5]; open container, 25° C./60% RH, 1 week",no change in crystal form or HPLC purity
same,"crystal form change (physical stability, XRPD)","[5]; open container, 25° C./60% RH, 1 week, hydrochloride",no change in crystal form
same,"crystal form change (physical stability, XRPD)","[5]; open container, 25° C./60% RH, 1 week, listed as crystal form B, hydrochloride",remains unchanged
"c1ccc2c(c1)nnn2CCCCN1CCN(c2nsc3ccccc23)CC1 [Crystal form F, 3-(4-(4-(1H-benzotriazol-1-yl)butyl)piperazin-1-yl) benzoisothiazole hydrochloride]",Crystal form transformation,[2]; hydrochloride,transformed into crystal form B
same,Solubility,[2]; [7],2900 µg/mL
same,pH,[2]; [8],4.7
"c1ccc2c(c1)nnn2CCCCN1CCN(c2nsc3ccccc23)CC1 [Crystal form D, 3-(4-(4-(1H-benzotriazol-1-yl)butyl)piperazin-1-yl) benzoisothiazole hydrochloride]",Crystal form transformation,"[2]; listed as 0, hydrochloride",transformed into crystal form B
same,Solubility,[2]; [7],3100 µg/mL
same,pH,[2]; [8],4.9
"c1ccc2c(c1)nnn2CCCCN1CCN(c2nsc3ccccc23)CC1 [Crystal form A, 3-(4-(4-(1H-benzotriazol-1-yl)butyl)piperazin-1-yl) benzoisothiazole hydrochloride]",Crystal form transformation,[2]; hydrochloride,No
same,Crystal form transformation,"[2]; listed as crystal form A, hydrochloride",remained unchanged
same,pH,[2]; [8],4.6
same,solubility at 24 h,"[2]; water, thermodynamic from solid, equilibrium solubility in water, room temperature, 24 hours",3800 µg/mL
same,crystal form transformation after the DVS test,[4]; 25° C.,no crystal form transformation
same,water absorbed (DVS),[4]; 25° C./80% RH,0.08%
same,hygroscopicity,"[4]; DVS, 25° C./80% RH, China Pharmacopoeia 2015 guide",no hygroscopicity
same,"chemical purity change (chemical stability, HPLC)",[5]; [9],does not undergo crystal form transformation and chemical purity reduction; also recorded: no crystal form transformation or reduction of HPLC purity
same,"crystal form transformation (physical stability, XRPD)",[5]; [9],does not undergo crystal form transformation; also recorded: no crystal form transformation
"c1ccc2c(c1)nnn2CCCCN1CCN(c2nsc3ccccc23)CC1 [X7, 3-(4-(4-(1H-benzotriazol-1-yl)butyl)piperazin-1-yl) benzoisothiazole hydrochloride]",EC50,[6],8.51 nM
same,PA2 to resist rabbit aorta contraction by 5HT,"[3]; X7 10^−7 mol/L, endothelium removed",8.86±0.14
same,PA2 to resist rabbit aorta contraction by norepinephrine,[1]; X7 3×10^−8 mol/L,7.98±0.04
